Test results: patent publication US9593154B2, “Engineered polypeptides having enhanced duration of action” (AMYLIN PHARMACEUTICALS, LLC, priority 2010, dated 2017)

Key:
NIH/Swiss female mice = experiment: OGTT DOA (oral glucose tolerance test for duration of action); assay type: in vivo, mouse; conditions: for % Glucose Lowering Compared to Vehicle: 25 nmol/kg IP at t=-1 day, glucose gavage 1.5 g/kg at t=0, blood glucose at 30 min, 24 hours post dose
Method: In vivo assays for activity and duration of action and pharmacokinetics can be done using known methods. For example, duration can be performed using an oral glucose tolerance test (OGTT) in which the drug is administered to the subject at a desired time point before the glucose is administered orally (to measure drug duration of action; OGTT DOA) and glucose blood levels are measured (e.g. readily done in mice). Activity and duration can also be measured using an intravenous glucose tolerance test (IVGTT) in which the drug is administered to the subject at a desired time point before the glucose is administered IV (IVGTT DOA) and blood glucose levels are measured (e.g. can readily be done in rats). Preferred engineered compounds have a desired effect on blood glucose of at least 24 hours duration after a single dose of drug, preferably at least 3 days, at least 4 days, at least 5 days, at least 6 days, and at least 1 week after the single dose of drug is given.
The effects on blood glucose prior to glucose gavage ([…]) and at 30 minutes post-glucose gavage were investigated 1 day post dose of peptide compound with varying amounts of Cmpd 15, with results shown in FIGS. 1A-1B. Bars represent mean±sd. Peptide was injected IP at t=−1 day. Glucose gavage (1.5 g/kg) given at t=0 to 4-hour fasted NIH/Swiss female mice. Blood glucose was measured with a OneTouch® Ultra® (LifeScan, Inc., a Johnson & Johnson Company, Milpitas, Calif.) * p<0.05 vs. vehicle control; ANOVA, Dunnett's test. This OGTT DOA indicates drug activity is present at least 24 hours after drug was administered. Exendin-4 (unconjugated) was ineffective in this assay when dosed at t-24 hours (1 day prior to the glucose assay), and even at higher doses.
The effects on blood glucose prior to gavage ([…]) and at 30 min were investigated 2 day post dose with varying amounts of Cmpd 15, with results shown in FIGS. 2A-2B. This OGTT DOA indicates drug activity is present at least 48 hours after drug was administered.
A comparison of the effects of Cmpds 15 and 8 on blood glucose was conducted, with results depicts in FIGS. 3A-3B. This OGTT DOA indicates drug activity is present at least 24 hours after drug was administered.
The effects of Cmpds 15, 8 and 10 on the change in blood glucose at 30 min (% pre-gavage) was investigated, as depicted in FIG. 7. In the figure, bars represent mean±s.d. Test compound was injected IP at t=−1 day. Glucose gavage (1.5 g/kg) given at t=0 to 4 hr fasted NIH/Swiss female mice. Blood glucose was measured as described herein. This OGTT DOA indicates drug activity is present at least 24 hours after drug was administered.
The effects of compounds disclosed herein on the change in blood glucose at 30 min (% pre-gavage) were investigated as described above. Test compound was injected IP at t=−1 day at 25 nmol/kg. Glucose gavage (1.5 g/kg) given at t=0 to 4 hr fasted NIH/Swiss female mice. Blood glucose was measured as described herein. This OGTT DOA indicates drug activity is present at least 24 hours after drug was administered. […] Exendin-4 (unconjugated) was ineffective in this assay when dosed at t-24 hours, and even at higher doses. […] Cmpd 22 with an albumin binding sequence the PAB protein from P. magnus had little if any […] (3%) in the above assay.

[1] = tested on: human kidney brush border membrane protein extracts; experiment: Human kidney brush border membrane (KBBM) stability assay; assay type: in vitro ADME; conditions: hKBBM, 30 microM peptide, 37 degrees C, 5 hours; relative to positive control
Method: Relative stability of representative peptides in a human kidney brush border membrane (KBBM) assay was performed as follows. Human kidney brush border membrane protein extracts are rich in various peptidases. […] In a separate vial, peptide stock solution (300 microM in 50% acetonitrile in water) was prepared and 70 microL of this solution was added to the above hKBBMP solution. The solution was gently mixed by manual shaking so that the final peptide concentration is 30 microM. Then 100 microL of this solution was aliquoted into six different tubes and into one tube 200 microL of enzyme stop solution (50% acetonitrile in water with 0.1% TFA) was added. This tube was used for the measurement of the initial peptide concentration at time t=0 minute while all other 5 tubes were incubated at 37 degrees C. using a water bath. At intervals of 1, 2, 3, 4 and 5 hour, each tube was taken out and quenched with 200 microL of stop solution. Finally, all six tubes were centrifuged at 1800×g for 10 min to remove any precipitated proteins. The supernatant (10 microL) was transferred into an HPLC auto sampler, and by using selected ion count method AUC was measured. Each sample was run in triplicates and average AUC was calculated for data analysis. Sample analysis was done on Agilent HPLC with mass detector with an acetonitrile with 0.1% TFA gradient. […]

[2] = Stability in human plasma; assay type: in vitro ADME; conditions: 10 μg/ml in human plasma, 37 degrees C, 5 hours; normalized to a standard (100%)
diabetic ob/ob mice = experiment: Chronic exposure in diabetic ob/ob mice (twice weekly, 28 days); assay type: in vivo, mouse
Method: The time course of the effect of the test compound on body weight, glucose lowering and HbA1c lowering in ob/ob mice was investigated post dose, with values at 4 weeks presented in FIGS. 11A, 11B, 11C and 11D. […] Points represent mean±s.d. (standard deviation). Each test compound was injected IP on day=0 immediately following baseline sample collection in non-fasted male ob/ob mice. The effects observed for the 25 nmol/kg biw (twice weekly) dose was greater than that observed for exendin-4 given at ˜7.2 nmol/kg/d by continuous infusion (CSI), a dose known to provide a maximal efficacy for exendin-4. […] Unless indicated otherwise, blood glucose measures described herein employed a OneTouch® Ultra® device (LifeScan, Inc. Miliptas, Calif.).

ob/ob mice = experiment: Effect on body weight, glucose and HbA1c in ob/ob mice after single sc dose; assay type: in vivo, mouse; conditions: non-fasted male ob/ob mice; Cmpd 15 at 250 nmol/kg sc on day 0
Method: The time course of the effect of Cmpd 15 on body weight, glucose and HbA1c in ob/ob mice was investigated post dose. […] Changes in glucose (% pre-treatment) and in HbA1c (% pre-treatment) are depicted in FIGS. 5B-5C. Points represent mean±s.d. (standard deviation). Cmpd 15 was injected sc on day=0 immediately following baseline sample collection in non-fasted male ob/ob mice. Unless indicated otherwise, blood glucose measures described herein employed a OneTouch® Ultra® device (LifeScan, Inc. Miliptas, Calif.).

[3] = tested on: renal cortical tubular epithelial cells; experiment: Kidney vacuolization histopathology; assay type: in vivo, mouse; conditions: C57BL6 female mice, sc injection days 0-6, sacrifice day 7
Method: With some drugs, such as some pegylated proteins, undesirable vacuoles can form in cytoplasm of epithelial cells lining the proximal convoluted tubules, which is an undesirable toxicity measure. […] C57BL6 female mice (n=2 cages, 3 mice/cage) were weighed daily 3 hours prior to lights out. Immediately after weighing, on days 0-6 mice were injected subcutaneously with test compound. Mice were sacrificed on day 7 and kidneys submitted for histopathology. […] A positive control compound known to cause vacuole formation was scored as 3. The ABD polypeptide itself scored 0. Cmpd 15 scored 0.

db/db mice = experiment: Oral delivery (gavage) in diabetic db/db mice, blood glucose; conditions: PBS/propylene glycol (50:50)
[4] = Pharmacokinetic profile after subcutaneous dosing in normal HSD rats; assay type: in vivo, rat; conditions: 25 nmol/kg single dose
Method: Blood was collected via tail bleed at t=1 hour, 3 hours, 6 hours, 24 hours, 48 hours, 72 hours, 96 hours and 168 hours from fed HSD male rats. Food and body weights were measured daily. […] Points represent mean±sd.

[5] = 25 and 250 nmol/kg IP twice each week for 28 days

HGEGTFTSDLSKQLEEEAVRLFIEWLKQGGPSKEIISTGGGGSGGGSGGGSGGGSASLAEAKVLANRELDKYGVSDFYKRLINKAKTVEGVEALKLHILAALP [Cmpd 8]
% Glucose Lowering Compared to Vehicle (NIH/Swiss female mice): −21%

CC[C@H](C)[C@H](NC(=O)[C@H](Cc1ccccc1)NC(=O)[C@H](CCC(=O)O)NC(=O)[C@H](CCCCN)NC(=O)[C@H](C)NC(=O)[C@H](C)NC(=O)[C@H](CCC(N)=O)NC(=O)CNC(=O)[C@H](CCC(=O)O)NC(=O)[C@H](CC(C)C)NC(=O)[C@H](Cc1ccc(O)cc1)NC(=O)[C@H](CO)NC(=O)[C@H](CO)NC(=O)[C@@H](NC(=O)[C@H](CC(=O)O)NC(=O)[C@H](CO)NC(=O)[C@@H](NC(=O)[C@H](Cc1ccccc1)NC(=O)[C@@H](NC(=O)CNC(=O)[C@H](CCC(=O)O)NC(=O)[C@H](C)NC(=O)[C@@H](N)Cc1c[nH]cn1)[C@@H](C)O)[C@@H](C)O)C(C)C)C(=O)N[C@@H](C)C(=O)N[C@@H](Cc1c[nH]c2ccccc12)C(=O)N[C@@H](CC(C)C)C(=O)N[C@H](C(=O)N[C@@H](CCCCN)C(=O)NCC(=O)N[C@@H](CCCNC(=N)N)C(N)=O)C(C)C [GLP-1(7-36) amide, reference compound]
Percent Stable [1]: 16% | Percent Stable in Human Plasma [2]: 41.7%

HGEGTFTSDLSKQLEEEAVRLFIEWLKQGGPSKEIISTGGGGSASLAEAKVLANRELDKYGVSDFYKRLINKAKTVEGVEALKLHILAALP [Cmpd 15]
effects compared to maximally efficacious dose of exendin-4 (7.2 nmol/kg/d CSI) (diabetic ob/ob mice; 25 nmol/kg biw, comparable equimolar dose): exceeded the glycemic and body weight loss effects of the maximally efficacious dose of exendin-4 | effects compared to maximally efficacious dose of exendin-4 (diabetic ob/ob mice; 250 nmol/kg biw): significantly greater | HbA1c lowering (% change from baseline) (diabetic ob/ob mice; [5]): significant HbA1c lowering | body weight loss (% change from baseline) (diabetic ob/ob mice; [5]): significant body weight loss | HbA1c lowering and body weight loss compared to liraglutide (diabetic ob/ob mice; equimolar dosing to liraglutide, data not shown): more effective than liraglutide | glucose lowering compared to liraglutide (diabetic ob/ob mice; equimolar dosing, twice weekly (BIW), chronic exposure): superior to liraglutide | effect on body weight (ob/ob mice): significant body weight loss | % Glucose Lowering Compared to Vehicle (NIH/Swiss female mice): −21% | Percent Stable in Human Plasma [2]: 96.0% | Severity score for cytoplasmic vacuolation of renal cortical tubular epithelial cells [3]: 0 | blood glucose lowering activity after oral dosing (db/db mice; 240 nmol/kg peroral gavage, to 120 minutes, 2-hour fasted db/db mice): active when dosed orally | oral bioavailability (db/db mice; peroral gavage, 1 mg/kg): orally bioavailable | apparent half-life [4]: 54 h

HGEGTFTSDLSKQMEEEAVRLFIEWLKNGGSLAEAKVLANRELDKYGVSDFYKRLINKAKTVEGVEALKLHILAALP [Cmpd 32]
glucose lowering activity when dosed 24 hours before the OGTT (in words) (NIH/Swiss female mice; dosed IP at t=-1 day): no glucose lowering

HGEGTFTSDLSKQLEEEAVRLFIEWLKQGGPSKEIISGGSLAEAKVLANRELDKYGVSDFYKRLINKAKTVEGVEALKLHILAALP [Cmpd 33]
% Glucose Lowering Compared to Vehicle (NIH/Swiss female mice): −19%

HGEGTFTSDLSKQMEEEAVRLFIEWLKNTGGGGSASLAEAKVLANRELDKYGVSDFYKRLINKAKTVEGVEALKLHILAALP [Cmpd 10]
% Glucose Lowering Compared to Vehicle (NIH/Swiss female mice): −22%
